Data published in US20070117220A1, “METHOD AND APPARATUS FOR MEASURING FLUORESCENCE POLARIZATION IN LAB-ON-A-CHIP” (priority 2005, published 2007).

Assays:
TMR-α-casein [1] = test: Protease assay by fluorescence polarization of TMR-α-casein substrate, commercial fluorescence spectrometer; format: biochemical; settings: time course, varying enzyme concentrations (unit/mL); FIGS. 9A-9D
Description: Changes of fluorescence polarization FP were measured using the method and apparatus for measuring fluorescence polarization of the present invention, employing TMR-α-casein as a substrate, composed of TMR as a fluorescent probe and α-casein, a universal protein substrate reacted with various proteases.
First, TMR-α-casein, a fluorescently labeled substrate for proteases, was prepared by applying one of the well-known methods [Analytical Biochemistry (,1996) 243, 1-7] as follows.
10 mg/mL of α-casein (sigma) and 5 mg/mL of 5-carboxytetramethylrhodamine succinimidyl ester were mixed in 0.1 M sodium bicarbonate buffer solution (pH 9.0) for reaction at room temperature for two and a half hours. The resulting TMR-α-casein was purified by passing the reaction mixture over a HiTrap desalting column (Sephadex G-25 Amersham Bioscience), and used after quantitation of the amounts of protein and fluorescence.
Proteinase K, trypsin, papain and elastase were used as proteases to react at increasing concentrations. First, as a comparative example, the process that the TMR-α-casein substrate was degraded by the proteases was analyzed using a commercial fluorescence spectrometer (Perkin Elmer). […]

TMR-α-casein [2] = test: On-chip protease assay by fluorescence polarization of TMR-α-casein substrate, lab-on-a-chip with optical chopper; format: biochemical; settings: 1 μM TMR-α-casein final in channel; reaction time 5.1 seconds; FIGS. 10A-10D
Description: Next, the protease assays were carried out using an apparatus for measuring fluorescence polarization including the optical chopper of FIG. 2 on a lab-on-a-chip of glass composed of a channel 1 C1, in which substrates or enzymes flowed, and a channel 2 C2, in which the reaction occurred, the channels having a depth of 12 μm and a width of 79 μm as depicted in FIG. 8.
For on-chip protease assays, the substrates and the enzymes should mix completely prior to the enzyme reactions. […] […] Therefore, the reaction time was confirmed to be 5.1 seconds after mixing of the substrate with the enzymes.
Subsequently, to carry out the protease assays in the lab-on-a-chip,2 μM of TMR-α-casein (the final concentration in the channel was 1 μM) was placed in a substrate reservoir and the respective proteases were placed in an enzyme reservoir at increasing concentrations in the same manner as the comparative example. Then, the two substances were allowed to flow into a channel 2 C2, a main channel, to cause a reaction. Fluorescence polarization FP was then measured at the detection point, positioned 32 mm away from the junction, from which the substrates and the enzymes flowed in.
Again, it was noted that fluorescence polarization values plateaued when the concentration of the enzymes reached at the point generating a specific rate or more.

streptavidin [3] = biological target: T1, streptavidin (Streptomyces avidinii, UniProt P22629); test: Fluorescence polarization of biotin/streptavidin complex in lab-on-a-chip microchannel, apparatus of FIG. 2 with optical chopper (Embodiment 3); format: binding
Description: Fluorescence polarization for the complex of biotin and streptavidin was measured using the apparatus of FIG. 2 including the optical chopper of the invention. In this Embodiment, a lab-on-a-chip made of glass and composed of a microchannel having a depth of 12 μm and a width of 79 μm was used to measure fluorescence polarization for a complex of biomolecule-fluorescently labeled biomaterial.
For the measurement, the samples were respectively filled in the reservoir of the lab-on-a-chip as following three cases: (A) wherein 4 μM of tetramethylrhodamine TMR was filled in the reservoir; (B) wherein 4 μM of TMR-biotin was put into the reservoir; and (C) wherein 4 μM of TMR-biotin and 1 μM of streptavidin were filled in the reservoirs.
Fluorescence polarizations FP for the above samples were measured in the microchannel of the lab-on-a-chip using the apparatus of FIG. 2 including the optical chopper.
As a result, in case of (A), fluorescence polarization was measured 0.047; in case of (B), it was 0.062; and in case of (C), it was 0.240, which were increased the complex of TMR-biotin and streptavidin was formed as shown in FIG. 7A.

streptavidin [4] = biological target: T1, streptavidin; test: Fluorescence polarization of biotin/streptavidin complex in lab-on-a-chip microchannel, apparatus of FIG. 2 without optical chopper (Embodiment 2); format: binding
Description: Fluorescence polarization FP for the complex of biotin and streptavidin in a lab-on-a-chip was measured using the apparatus of FIG. 2, wherein the optical chopper was not inserted. In this Embodiment, a lab-on-a-chip made of glass and composed of a microchannel having a depth of 12 μm and a width of 79 um was used instead of the 100 μL cuvette. After filling 100 μM of tetramethylrhodamine TMR solution in the microchannel of the lab-on-a-chip using a vacuum pump, a G-factor value was obtained in the same manner described above in Embodiment 1. […] Subsequently, the above samples filled in the reservoirs 1 and 2 were injected into the microchannel using the vacuum pump 6 of the lab-on-a-chip to measure fluorescence polarizations FP for the samples at a detection point 5 of the lab-on-a-chip.
As a result, in case of (A), fluorescence polarization was measured 0.085; in case of (B), it was 0.097; in case of (C), it was 0.036; in case of (D), it was 0.040; and in case of (E), it was 0.064, which were deviated from the expectations of increases in fluorescence polarization FP as not increased as the complex of TMR-biotin and streptavidin was formed as shown in FIG. 6A.
Fluorescence polarizations were recalculated from the measured values by subtracting the offset values, the offset being measured in the microchannel when only the buffer solution was filled. […]

| change of fluorescence polarization values of TMR-α-casein with enzyme concentration (TMR-α-casein [2]) | Molecule | change of fluorescence polarization values of TMR-α-casein as the reaction proceeded (TMR-α-casein [1]) | further results |
| --- | --- | --- | --- |
| decreased with increasing concentrations | trypsin | decreased |  |
|  | CN(C)c1ccc2c(-c3ccccc3C(=O)[O-])c3ccc(N(C)C)cc3[o+]c2c1 [TMR, tetramethylrhodamine] |  | fluorescence polarization (streptavidin [3]; 4 μM probe only, microchannel, optical chopper): 0.047; fluorescence polarization recalculated by subtracting the offset values (streptavidin [4]; 1.25 μM probe only in reservoir 1, buffer offset subtracted): 0.020; fluorescence polarization (as measured, offset not subtracted) (streptavidin [4]; 1.25 μM probe only in reservoir 1, no chopper): 0.085 |
|  | O=C(O)CCCC[C@@H]1SC[C@@H]2NC(=O)N[C@@H]21 [D-biotin] |  | change of fluorescence polarization by competitive inhibition of TMR-biotin/streptavidin binding (streptavidin [3]; increasing concentrations of D-biotin supplied to the complex (4 μM TMR-biotin, 1 μM streptavidin) in the microchannel, FIG. 7B): decreased with the increasing concentrations |
| decreased with increasing concentrations | elastase | decreased |  |
